Source: US10123993B2, “Cyclic ureas as inhibitors of rock” (BRISTOL-MYERS SQUIBB COMPANY, priority 2015, dated 2018)

Target: ROCK2 (Homo sapiens, UniProt O75116)
Assay: ROCK2 kinase inhibition assay (Caliper LABCHIP, FITC peptide substrate)
Type: biochemical
Details: 5 μM ATP, 1.5 μM peptide substrate; value ranges
Method in brief: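 Rho kinase with 5 μM ATP and 1.5 μM FITC-AHA-AKRRRLSSLRA-OH peptide in HEPES pH 7.5, 20 mM MgCl2, 0.015% Brij-35, 4 mM DTT, DMSO <2%. EDTA stop; phospho and non-phospho peptide separated on LabChip. IC50 from dose-response fit.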

Sequence of ROCK2 (O75116 whole entry, species assumed): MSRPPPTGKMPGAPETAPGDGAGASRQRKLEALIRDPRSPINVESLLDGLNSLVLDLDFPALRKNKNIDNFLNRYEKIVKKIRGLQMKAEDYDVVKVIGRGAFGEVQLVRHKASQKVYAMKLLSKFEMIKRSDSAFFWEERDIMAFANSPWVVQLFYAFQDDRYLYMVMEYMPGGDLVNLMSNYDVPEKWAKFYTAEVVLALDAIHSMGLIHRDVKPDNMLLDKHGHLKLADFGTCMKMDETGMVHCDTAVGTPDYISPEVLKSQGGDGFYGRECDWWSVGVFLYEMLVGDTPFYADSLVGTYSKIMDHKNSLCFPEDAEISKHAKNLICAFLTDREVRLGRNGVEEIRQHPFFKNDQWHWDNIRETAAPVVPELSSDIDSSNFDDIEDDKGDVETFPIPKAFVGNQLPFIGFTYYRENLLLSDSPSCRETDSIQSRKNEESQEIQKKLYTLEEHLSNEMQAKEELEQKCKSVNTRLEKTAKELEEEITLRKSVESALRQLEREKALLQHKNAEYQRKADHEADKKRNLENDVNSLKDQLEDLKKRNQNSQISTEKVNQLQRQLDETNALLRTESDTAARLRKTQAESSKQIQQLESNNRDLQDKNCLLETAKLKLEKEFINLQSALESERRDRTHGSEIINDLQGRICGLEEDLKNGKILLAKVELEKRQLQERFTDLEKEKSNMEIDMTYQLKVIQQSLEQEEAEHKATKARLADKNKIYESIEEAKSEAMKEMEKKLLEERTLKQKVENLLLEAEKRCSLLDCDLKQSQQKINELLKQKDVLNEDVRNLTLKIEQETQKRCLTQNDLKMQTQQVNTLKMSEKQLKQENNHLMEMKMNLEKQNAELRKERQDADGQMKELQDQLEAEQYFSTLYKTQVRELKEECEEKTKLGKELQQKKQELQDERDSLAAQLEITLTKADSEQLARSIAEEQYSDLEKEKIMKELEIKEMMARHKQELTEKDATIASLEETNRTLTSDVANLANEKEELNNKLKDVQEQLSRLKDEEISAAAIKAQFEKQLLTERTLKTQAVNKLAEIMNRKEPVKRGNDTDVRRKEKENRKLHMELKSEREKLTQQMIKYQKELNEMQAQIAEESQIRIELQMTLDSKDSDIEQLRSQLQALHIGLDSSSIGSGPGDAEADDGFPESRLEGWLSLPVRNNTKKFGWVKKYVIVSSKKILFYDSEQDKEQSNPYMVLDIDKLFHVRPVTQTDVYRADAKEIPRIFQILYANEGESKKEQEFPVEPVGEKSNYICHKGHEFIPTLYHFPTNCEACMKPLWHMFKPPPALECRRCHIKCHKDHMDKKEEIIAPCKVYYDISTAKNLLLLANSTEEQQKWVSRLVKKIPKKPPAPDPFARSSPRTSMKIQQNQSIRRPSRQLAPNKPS

Row | IC50 [nM] | Structure (SMILES)
1 | 20.1 to 200 | CCC1CN(c2ccc(-c3cn[nH]c3)cc2)C(=O)N1Cc1cccc(OCC2CC2)c1 (stereo not drawn) [Example 177, 1-(4-(1H-pyrazol-4-yl)phenyl)-3-(3-(cyclo-propyl-methoxy)-benzyl)-4-ethyl-imidazolidin-2-one]
2 | 2.1 to 20 | COc1cc(F)cc(CN2CCN(c3ccc(-c4cn[nH]c4)c(C)n3)C2=O)c1 [Example 178, 1-(3-fluoro-5-methoxy-benzyl)-3-(6-methyl-5-(1H-pyrazol-4-yl)pyridin-2-yl)-imidazolidin-2-one]
3 | 2.1 to 20 | COc1cccc(CN2CCN(c3ccc(-c4cn[nH]c4)c(C)n3)C2=O)c1 [Example 179, 1-(3-methoxy-benzyl)-3-(6-methyl-5-(1H-pyrazol-4-yl)pyridin-2-yl)-imidazolidin-2-one]
4 | < 2 | CCc1nc(-n2ccn(Cc3cccc(OC)c3)c2=O)ccc1-c1cn[nH]c1 [Example 180, 1-(6-ethyl-5-(1H-pyrazol-4-yl)pyridin-2-yl)-3-(3-methoxy-benzyl)-1H-imidazol-2(3H)-one]
5 | 2.1 to 20 | COc1cc(F)cc(Cn2ccn(-c3ccc(-c4cn[nH]c4)c(C)n3)c2=O)c1 [Example 185, 1-(3-fluoro-5-methoxy-benzyl)-3-(6-methyl-5-(1H-pyrazol-4-yl)pyridin-2-yl)-1H-imidazol-2(3H)-one]
6 | 20.1 to 200 | Cc1nc(N2CCN(Cc3cccc(OCC4CC4)c3)C2=O)ccc1-c1cn[nH]c1 [Example 186, 1-(3-(cyclo-propyl-methoxy)-benzyl)-3-(6-methyl-5-(1H-pyrazol-4-yl)pyridin-2-yl)-imidazolidin-2-one]
7 | 2.1 to 20 | COc1cccc(Cn2ccn(-c3ccc(-c4cn[nH]c4)c(C)n3)c2=O)c1 [Example 187, 1-(3-methoxy-benzyl)-3-(6-methyl-5-(1H-pyrazol-4-yl)pyridin-2-yl)-1H-imidazol-2(3H)-one]
8 | 200 to 2000 | CCc1cc(N2CCN(Cc3cccc(OC)c3)C2=O)ncc1-c1cn[nH]c1 [Example 190, 1-(4-ethyl-5-(1H-pyrazol-4-yl)pyridin-2-yl)-3-(3-methoxy-benzyl) imidazolidin-2-one]
9 | 200 to 2000 | CCc1cc(N2CCN(Cc3cc(F)cc(OC)c3)C2=O)ncc1-c1cn[nH]c1 [Example 191, 1-(4-ethyl-5-(1H-pyrazol-4-yl)pyridin-2-yl)-3-(3-fluoro-5-methoxy-benzyl) imidazolidin-2-one]
10 | 200 to 2000 | CCc1cc(N2CCN(Cc3ccc(F)c(OC)c3)C2=O)ncc1-c1cn[nH]c1 [Example 194, 1-(4-ethyl-5-(1H-pyrazol-4-yl)pyridin-2-yl)-3-(4-fluoro-3-methoxy-benzyl) imidazolidin-2-one]
11 | 20.1 to 200 | CNc1nc(N2CCN(Cc3ccc(F)c(OC)c3)C2=O)ccc1-c1cn[nH]c1 [Example 199, 1-(4-fluoro-3-methoxy-benzyl)-3-(6-(methyl-amino)-5-(1H-pyrazol-4-yl)pyridin-2-yl)-imidazolidin-2-one]
12 | 2.1 to 20 | CNc1nc(N2CCN(Cc3cc(F)cc(OC)c3)C2=O)ccc1-c1cn[nH]c1 [Example 200, 1-(3-fluoro-5-methoxy-benzyl)-3-(6-(methyl-amino)-5-(1H-pyrazol-4-yl)pyridin-2-yl)-imidazolidin-2-one]
13 | 200 to 2000 | CNc1nc(N2CCN(Cc3cccc(OCC4CC4)c3)C2=O)ccc1-c1cn[nH]c1 [Example 201, 1-(3-(cyclopropyl-methoxy)-benzyl)-3-(6-(methyl-amino)-5-(1H-pyrazol-4-yl)pyridin-2-yl)-imidazolidin-2-one]
14 | 2.1 to 20 | CNc1nc(N2CCN(Cc3cccc(OC)c3)C2=O)ccc1-c1cn[nH]c1 [Example 202, 1-(3-methoxy-benzyl)-3-(6-(methyl-amino)-5-(1H-pyrazol-4-yl)pyridin-2-yl)-imidazolidin-2-one]
15 | 200 to 2000 | COc1cccc(CN2CCN(c3ccc(-c4ccncc4F)c(C)n3)C2=O)c1 [Example 205, 1-(3′-fluoro-2-methyl-[3,4′-bipyridin]-6-yl)-3-(3-methoxy-benzyl) imidazolidin-2-one]
16 | 20.1 to 200 | Cc1nc(N2CCN(Cc3ccc(F)c(OCC4CC4)c3)C2=O)ccc1-c1cn[nH]c1 [Example 210, 1-(3-(cyclopropylmethoxy)-4-fluorobenzyl)-3-(6-methyl-5-(1H-pyrazol-4-yl)pyridin-2-yl)imidazolidin-2-one]
17 | 200 to 2000 | O=C1N(CC2CCCCC2)CCN1c1ccc(-c2cn[nH]c2)cc1 [Example 211, 1-(4-(1H-pyrazol-4-yl)phenyl)-3-(cyclohexylmethyl)imidazolidin-2-one]
18 | < 2 | COc1cc(CN2CCN(c3ccc(-c4cn[nH]c4)c(OC)n3)C2=O)ccc1F [Example 214, 1-(4-fluoro-3-methoxybenzyl)-3-(6-methoxy-5-(1H-pyrazol-4-yl)pyridin-2-yl)imidazolidin-2-one]
19 | 2.1 to 20 | COc1nc(N2CCN(Cc3ccc(F)c(OCC4CC4)c3)C2=O)ccc1-c1cn[nH]c1 [Example 218, 1-(3-(cyclopropylmethoxy)-4-fluorobenzyl)-3-(6-methoxy-5-(1H-pyrazol-4-yl)pyridin-2-yl)imidazolidin-2-one]
20 | < 2 | COc1ccc(F)c(CN2CCN(c3ccc(-c4cn[nH]c4)c(OC)n3)C2=O)c1 [Example 221, 1-(2-fluoro-5-methoxybenzyl)-3-(6-methoxy-5-(1H-pyrazol-4-yl)pyridin-2-yl)imidazolidin-2-one]

Row | IC50 [nM] | Structure (SMILES)
21 | 2.1 to 20 | COc1ccc(F)cc1CN1CCN(c2ccc(-c3cn[nH]c3)c(OC)n2)C1=O [Example 222, 1-(5-fluoro-2-methoxybenzyl)-3-(6-methoxy-5-(1H-pyrazol-4-yl)pyridin-2-yl)imidazolidin-2-one]
22 | 2.1 to 20 | COc1nc(N2CCN(Cc3cccc(F)c3F)C2=O)ccc1-c1cn[nH]c1 [Example 223, 1-(2,3-difluorobenzyl)-3-(6-methoxy-5-(1H-pyrazol-4-yl)pyridin-2-yl)imidazolidin-2-one]
23 | 2.1 to 20 | COc1nc(N2CCN(Cc3cc(F)cc(OCC4CC4)c3)C2=O)ccc1-c1cn[nH]c1 [Example 224, 1-(3-(cyclopropylmethoxy)-5-fluorobenzyl)-3-(6-methoxy-5-(1H-pyrazol-4-yl)pyridin-2-yl)imidazolidin-2-one]
24 | 2.1 to 20 | COc1nc(N2CCN(Cc3cccc(F)c3OC)C2=O)ccc1-c1cn[nH]c1 [Example 225, 1-(3-fluoro-2-methoxybenzyl)-3-(6-methoxy-5-(1H-pyrazol-4-yl)pyridin-2-yl)imidazolidin-2-one]
25 | < 2 | COc1nc(N2CCN(Cc3cccc(F)c3)C2=O)ccc1-c1cn[nH]c1 [Example 226, 1-(3-fluorobenzyl)-3-(6-methoxy-5-(1H-pyrazol-4-yl)pyridin-2-yl)imidazolidin-2-one]
26 | 2.1 to 20 | COc1nc(N2CCN(CC3CCCCC3)C2=O)ccc1-c1cn[nH]c1 [Example 227, 1-(cyclohexylmethyl)-3-(6-methoxy-5-(1H-pyrazol-4-yl)pyridin-2-yl)imidazolidin-2-one]
27 | 2.1 to 20 | COc1nc(N2CCN(Cc3cccc(OC(F)F)c3)C2=O)ccc1-c1cn[nH]c1 [Example 233, 1-(3-(difluoromethoxy)benzyl)-3-(6-methoxy-5-(1H-pyrazol-4-yl)pyridin-2-yl)imidazolidin-2-one]
28 | 20.1 to 200 | Cc1cccc(CN2CCN(c3ccc(-c4cn[nH]c4)cn3)C2=O)c1 [Example 234, 1-(5-(1H-pyrazol-4-yl)pyridin-2-yl)-3-(3-methylbenzyl)imidazolidin-2-one]
29 | 200 to 2000 | N#Cc1cccc(CN2CCN(c3ccc(-c4cn[nH]c4)cn3)C2=O)c1 [Example 235, 3-((3-(5-(1H-pyrazol-4-yl)pyridin-2-yl)-2-oxoimidazolidin-1-yl)methyl)benzonitrile]
30 | 20.1 to 200 | O=C1N(Cc2cccc(Cl)c2)CCN1c1ccc(-c2cn[nH]c2)cn1 [Example 237, 1-(5-(1H-pyrazol-4-yl)pyridin-2-yl)-3-(3-chlorobenzyl)imidazolidin-2-one]
31 | 200 to 2000 | O=C1N(Cc2ccc(F)c(F)c2)CCN1c1ccc(-c2cn[nH]c2)cn1 [Example 238, 1-(5-(1H-pyrazol-4-yl)pyridin-2-yl)-3-(3,4-difluorobenzyl)imidazolidin-2-one]
32 | 20.1 to 200 | O=C(O)c1cccc(CN2CCN(c3ccc(-c4cn[nH]c4)cn3)C2=O)c1 [Example 239, 3-((3-(5-(1H-pyrazol-4-yl)pyridin-2-yl)-2-oxoimidazolidin-1-yl)methyl)benzoic acid]
33 | 200 to 2000 | O=C1N(Cc2cccc(C(F)(F)F)c2)CCN1c1ccc(-c2cn[nH]c2)cn1 [Example 240, 1-(5-(1H-pyrazol-4-yl)pyridin-2-yl)-3-(3-(trifluoromethyl)benzyl)imidazolidin-2-one]
34 | 200 to 2000 | O=C1N(Cc2ccc(Cl)c(Cl)c2)CCN1c1ccc(-c2cn[nH]c2)cn1 [Example 241, 1-(5-(1H-pyrazol-4-yl)pyridin-2-yl)-3-(3,4-dichlorobenzyl)imidazolidin-2-one]
35 | 200 to 2000 | O=C1N(Cc2cccnc2)CCN1c1ccc(-c2cn[nH]c2)cn1 [Example 242, 1-(5-(1H-pyrazol-4-yl)pyridin-2-yl)-3-(pyridin-3-ylmethyl)imidazolidin-2-one]
36 | 200 to 2000 | O=C1N(Cc2ccccn2)CCN1c1ccc(-c2cn[nH]c2)cn1 [Example 243, 1-(5-(1H-pyrazol-4-yl)pyridin-2-yl)-3-(pyridin-2-ylmethyl)imidazolidin-2-one]
37 | 2.1 to 20 | COc1nc(N2CCN(Cc3ccccc3F)C2=O)ccc1-c1cn[nH]c1 [Example 244, 1-(2-fluorobenzyl)-3-(6-methoxy-5-(1H-pyrazol-4-yl)pyridin-2-yl)imidazolidin-2-one]
38 | 20.1 to 200 | COc1nc(N2CCN(Cc3ccc(F)cc3F)C2=O)ccc1-c1cn[nH]c1 [Example 245, 1-(2,4-difluorobenzyl)-3-(6-methoxy-5-(1H-pyrazol-4-yl)pyridin-2-yl)imidazolidin-2-one]
39 | 2.1 to 20 | COc1nc(N2CCN(Cc3cc(F)ccc3F)C2=O)ccc1-c1cn[nH]c1 [Example 246, 1-(2,5-difluorobenzyl)-3-(6-methoxy-5-(1H-pyrazol-4-yl)pyridin-2-yl)imidazolidin-2-one]
